A short description of data set [1]: Selectivity index, ratio of IC50 for CHO cells to IC50 for chloroquine-sensitive Plasmodium falciparum NF54. Particulars: hamster, read-out: Ratio IC50. The class given is toxicity, cell-based.
The next data set has as its system CHO. Kind of data set: Cytotoxicity against CHO cells by MTT assay. The class given is cell-based. Particulars: Cricetulus griseus. On the technique in general: Tetrazolium assays rely on reduction of a dye to a coloured formazan, in cell work by metabolically active cells.
Data set [2] relates to Plasmodium falciparum. As to the kind of experiment: Antiplasmodial activity against chloroquine-sensitive Plasmodium falciparum NF54 assessed as reduction in parasite growth by parasite lactate dehydrogenase assay. The class given is functional, organism-based.
Data set [3] deals with Plasmodium falciparum. As to the kind of experiment: Antiplasmodial activity against Plasmodium falciparum after 48 hrs by NIH quantitative high throughput screen assay. The format is functional, organism-based.

Usually IC50 stands for the midpoint of a concentration-inhibition curve. On to `CC(=O)c1ccc(C(=O)NC[C@@H]2C[C@@H]3c4cccc5c4c(cn5C)C[C@H]3N(C)C2)cc1`, for which the selectivity ratio in data set [1] was 12. Moreover, the IC50 worked out at 152 µM with CHO and 12.3 µM in the data set on Plasmodium falciparum [2].
The matching figures for `CN1C[C@H](CNC(=O)C2CCCCN2)C[C@@H]2c3cccc4c3c(cn4C)C[C@H]21` (stereo not given in full): 13, 16.6 µM and 1.23 µM.
Consider `CN1C[C@H](CNC(=O)c2cccnc2)C[C@@H]2c3cccc4c3c(cn4C)C[C@H]21`, for which the selectivity ratio in data set [1] amounted to 9. Also, the IC50 was 162 µM in the data set with CHO and 17.4 µM in the data set with Plasmodium falciparum [2].
Turning to `CN1C[C@H](CNC(=O)c2ccncc2)C[C@@H]2c3cccc4c3c(cn4C)C[C@H]21`, the selectivity ratio in data set [1] was found to be 9. The IC50 in the data set on CHO was 161 µM; with Plasmodium falciparum [2], 17.5 µM.
Turning to `CN1C[C@H](CNC(=O)c2ccccn2)C[C@@H]2c3cccc4c3c(cn4C)C[C@H]21`, the selectivity ratio in data set [1] is 10. For the same compound, the figures for the 50% inhibitory concentration (IC50) in the data set with CHO and in the data set with Plasmodium falciparum [2] were 112 µM and 11.4 µM, respectively.
The matching figures for `CN1C[C@H](CNC(=O)c2cnccn2)C[C@@H]2c3cccc4c3c(cn4C)C[C@H]21`: 20, 164 µM and 8.4 µM.
For `CN1C[C@H](CNC(=O)c2ccncn2)C[C@@H]2c3cccc4c3c(cn4C)C[C@H]21`, in the data set with Plasmodium falciparum [2], the IC50 was found to be 27.4 µM.
`CC(=O)NC[C@@H]1C[C@@H]2c3cccc4c3c(cn4C)C[C@H]2N(C)C1`: the IC50 in the data set with Plasmodium falciparum [2] came to 199 µM.
As to `CCC(=O)NC[C@@H]1C[C@@H]2c3cccc4c3c(cn4C)C[C@H]2N(C)C1`, the IC50 in the data set with Plasmodium falciparum [2] was found to be 40.3 µM.
Consider `CCCC(=O)NC[C@@H]1C[C@@H]2c3cccc4c3c(cn4C)C[C@H]2N(C)C1`, for which, in the data set on Plasmodium falciparum [2], the IC50 was 32.1 µM.
In the case of `CCCCC(=O)NC[C@@H]1C[C@@H]2c3cccc4c3c(cn4C)C[C@H]2N(C)C1`, the selectivity ratio in data set [1] is 6. In addition, the half-maximal inhibitory concentration (IC50) with CHO stood at 105 µM; with Plasmodium falciparum [2], 18.7 µM.
In the case of `CN1C[C@H](CNC(=O)C(C)(C)C)C[C@@H]2c3cccc4c3c(cn4C)C[C@H]21`, the IC50 with Plasmodium falciparum [2] turned out to be 89.1 µM.
Regarding `CCCCCC(=O)NC[C@@H]1C[C@@H]2c3cccc4c3c(cn4C)C[C@H]2N(C)C1`, the IC50 in the data set on Plasmodium falciparum [2] came to 28.6 µM.
On to `CCCCCCC(=O)NC[C@@H]1C[C@@H]2c3cccc4c3c(cn4C)C[C@H]2N(C)C1`, for which the selectivity ratio in data set [1] amounted to 1. The IC50 with CHO turned out to be 8.9 µM; in the data set on Plasmodium falciparum [2], 9.1 µM.
The matching figures for `CCCCCCCC(=O)NC[C@@H]1C[C@@H]2c3cccc4c3c(cn4C)C[C@H]2N(C)C1`: 1, 4.6 µM and 3.9 µM.
`CCCCCCCCCC(=O)NC[C@@H]1C[C@@H]2c3cccc4c3c(cn4C)C[C@H]2N(C)C1`: in data set [1], the selectivity ratio was 17. For the same compound, the IC50 with CHO turned out to be 86.6 µM; in the data set with Plasmodium falciparum [2], 5.2 µM.
As for `CN1C[C@H](CNC(=O)C2CCCC2)C[C@@H]2c3cccc4c3c(cn4C)C[C@H]21`, the selectivity ratio in data set [1] came to 33. Besides, the IC50 was found to be 144 µM with CHO and 4.3 µM in the data set on Plasmodium falciparum [2].
On to `CN1C[C@H](CNC(=O)c2ccc(OC(F)(F)F)cc2)C[C@@H]2c3cccc4c3c(cn4C)C[C@H]21`, for which the selectivity ratio in data set [1] was 3. Besides, the IC50 with CHO was 12.8 µM; with Plasmodium falciparum [2], 4.2 µM.
Turning to `CN1C[C@H](CNC(=O)c2ccc([N+](=O)[O-])cc2)C[C@@H]2c3cccc4c3c(cn4C)C[C@H]21`, in data set [1], the selectivity ratio is 11. Besides, the values for the IC50 in the data set on CHO and with Plasmodium falciparum [2] were 5 µM and 0.5 µM, respectively.
In the case of `CN1C[C@H](CNC(=O)c2ccc(Cl)cc2)C[C@@H]2c3cccc4c3c(cn4C)C[C@H]21`, the selectivity ratio in data set [1] was found to be 3. Moreover, the IC50 was 4.3 µM in the data set with CHO and 1.3 µM with Plasmodium falciparum [2].
Turning to `CN1C[C@H](CNC(=O)c2ccccc2Cl)C[C@@H]2c3cccc4c3c(cn4C)C[C@H]21`, the selectivity ratio in data set [1] worked out at 2. Besides, the IC50 was 25 µM in the data set with CHO and 14.6 µM with Plasmodium falciparum [2].
The like results for `CN1C[C@H](CNC(=O)c2cccc(Cl)c2)C[C@@H]2c3cccc4c3c(cn4C)C[C@H]21` were, in that order, 1, 4.7 µM and 4.9 µM.
In the case of `CN1C[C@H](CNC(=O)c2ccc(Cl)c(Cl)c2)C[C@@H]2c3cccc4c3c(cn4C)C[C@H]21`, the selectivity ratio in data set [1] is 1. Further, the results for the IC50 in the data set with CHO and with Plasmodium falciparum [2] were 3.8 µM and 4.8 µM, respectively.
For `CN1C[C@H](CNC(=O)c2ccc(Cl)cc2Cl)C[C@@H]2c3cccc4c3c(cn4C)C[C@H]21`, the selectivity ratio in data set [1] stood at 1. The results for the IC50 with CHO and in the data set with Plasmodium falciparum [2] were 7.5 µM and 8.3 µM, respectively.
For the compound `CN1C[C@H](CNC(=O)c2ccc(C#N)cc2)C[C@@H]2c3cccc4c3c(cn4C)C[C@H]21`, the selectivity ratio in data set [1] was found to be 188. In addition, the IC50 in the data set on CHO was found to be 104 µM; with Plasmodium falciparum [2], 0.6 µM.
Take `CN1C[C@H](CNC(=O)c2ccc(S(C)(=O)=O)cc2)C[C@@H]2c3cccc4c3c(cn4C)C[C@H]21`: the selectivity ratio in data set [1] is 16. For the same compound, the IC50 in the data set on CHO turned out to be 222 µM; with Plasmodium falciparum [2], 14.2 µM.
Consider `COc1ccc(C(=O)NC[C@@H]2C[C@@H]3c4cccc5c4c(cn5C)C[C@H]3N(C)C2)cc1`, for which, in data set [1], the selectivity ratio came to 1. The IC50 in the data set on CHO stood at 7.4 µM; in the data set with Plasmodium falciparum [2] it was 8.4 µM.
For `CSc1ccc(C(=O)NC[C@@H]2C[C@@H]3c4cccc5c4c(cn5C)C[C@H]3N(C)C2)cc1`, in data set [1], the selectivity ratio worked out at 1. The IC50 with CHO was 6 µM; in the data set with Plasmodium falciparum [2] it was 4.7 µM.
The matching figures for `CCc1ccc(C(=O)NC[C@@H]2C[C@@H]3c4cccc5c4c(cn5C)C[C@H]3N(C)C2)cc1`: 1, 5.6 µM and 4.3 µM.
Consider `CCCCc1ccc(C(=O)NC[C@@H]2C[C@@H]3c4cccc5c4c(cn5C)C[C@H]3N(C)C2)cc1`, for which the selectivity ratio in data set [1] was found to be 7. The half-maximal inhibitory concentration (IC50) is 14.5 µM with CHO and 2 µM in the data set with Plasmodium falciparum [2].
For `CN(C)c1ccc(C(=O)NC[C@@H]2C[C@@H]3c4cccc5c4c(cn5C)C[C@H]3N(C)C2)cc1`, the selectivity ratio in data set [1] stood at 4. The IC50 was determined as 132 µM with CHO and 33.8 µM in the data set on Plasmodium falciparum [2].
As to `CN1C[C@H](CN)C[C@@H]2c3cccc4c3c(cn4C)C[C@H]21`, in data set [1], the selectivity ratio was 7. For the same compound, the IC50 came to 26.1 µM with CHO and 3.6 µM in the data set on Plasmodium falciparum [2].
Regarding `CN1C[C@H](CNC(=O)c2ccccc2)C[C@@H]2c3cccc4c3c(cn4C)C[C@H]21`, in data set [1], the selectivity ratio is 1. Further, the results for the IC50 in the data set on CHO and in the data set with Plasmodium falciparum [2] were 27 µM and 24.4 µM, respectively.
With `CN1C[C@H](CNC(=O)c2ccc(F)cc2)C[C@@H]2c3cccc4c3c(cn4C)C[C@H]21`, the selectivity ratio in data set [1] came to 0.6. Besides, the IC50 worked out at 7.3 µM in the data set on CHO and 12.5 µM in the data set with Plasmodium falciparum [2].
The matching figures for `CN1C[C@H](CNC(=O)c2ccc(Br)cc2)C[C@@H]2c3cccc4c3c(cn4C)C[C@H]21`: 2, 5.1 µM and 2.6 µM.
For `CN1C[C@H](CNC(=O)c2ccc(I)cc2)C[C@@H]2c3cccc4c3c(cn4C)C[C@H]21`, the selectivity ratio in data set [1] stood at 2. For the same compound, the 50% inhibitory concentration (IC50) with CHO is 5.5 µM; in the data set on Plasmodium falciparum [2], 3 µM.
With `CN1C[C@H](CNC(=O)c2ccc(C(F)(F)F)cc2)C[C@@H]2c3cccc4c3c(cn4C)C[C@H]21`, in data set [1], the selectivity ratio amounted to 2. The half-inhibitory concentration (IC50) worked out at 4.9 µM with CHO and 2.7 µM with Plasmodium falciparum [2].
As to `C[C@H]1[C@H](OC(=O)CCC(=O)O)O[C@@H]2O[C@@]3(C)CC[C@H]4[C@H](C)CC[C@@H]1[C@@]24OO3` [ARTESUNATE], the IC50 in the data set with Plasmodium falciparum [2] turned out to be 2.8 ng/mL.
Turning to `CC[C@H]1CN2CCc3cc(OC)c(OC)cc3[C@@H]2C[C@@H]1C[C@H]1NCCc2cc(OC)c(OC)cc21` [EMETINE], inhibition with CHO was half-maximal at 0.05 µM (IC50).
On to `CN1C[C@H](CNC(=O)OCc2ccccc2)C[C@@H]2c3cccc4c3c(cn4C)C[C@H]21` [METERGOLINE], for which the selectivity ratio in data set [1] was determined as 4.5. Moreover, the results for the IC50 in the data set on CHO, in the data set on Plasmodium falciparum [2] and in the data set with Plasmodium falciparum [3] were 16.6 µM, 3.7 µM and 7.4 µM, respectively.

Values taken from ChEMBL document CHEMBL3132842, “Synthesis of metergoline analogues and their evaluation as antiplasmodial agents” (Medchemcomm, 2014).
